Laboratory results reported in patent US4918073A, “Diarylalkyl-substituted alkylamines and medicaments containing them” (Hoechst Aktiengesellschaft, priority 1986, dated 1990).
Like-named read-outs stand apart in the source and are kept apart here.

Key:
[1] = test system: isolated guineapig heart; assay: coronary circulation on the isolated guineapig heart (Langendorff); settings: Cavia porcellus, vs control hearts; for activation at 0.0001 mg: dose 0.1 μg via feed tube; for activation at 0.0005 mg: dose 0.5 μg via feed tube
Description: For this test, female heparinized (2.5 mg of heparin sodium intraperitoneally 1 hour before sacrifice) guineapigs (220-250 g) were sacrificed by a blow on the neck. Immediately after the thorax has been opened, cardiac arrest was induced by cooling the heart with icecold saline solution. The ascending aorta was catheterized and connected to a non-recirculating perfusion system (hydrostatic pressure 65 cm of H2 O) in accordance with the method of Langendorff. Exposure of the heart was folowed by a perfusion period of 30 minutes for adaptation of the heart to the isolated state. A modified Krebs-Henseleit bicarbonate solution (113.8 mM NaCl, 22.0 mM NaHCO3, 4.7 mM KCl, 1.2 mM KH2 PO4, 1.1 mM MgSO4 ×7 H2 O and 2.5 mM CaCl2 ×2 H2 O, equilibrated with 95% of O2 and 5% of CO2, pH 7.41, 38° C.) was used as the perfusate. Glucose (11 mM) and sodium pyruvate (2.0 mM) were added. The osmolality of the perfusate was kept constant by adjusting the amount of NaCl. The hearts were loaded with a resting voltage of 2 pond (p). The heart rate and contraction force were recorded isometrically and the equipment for this (Hellige GmbH, Freiburg, Germany) were calibrated to 2 p. The coronary flow was determined with the aid of a drop counter, 7 drops corresponding to 1 ml. The values stated are expressed as the percentage increase in coronary circulation after administration of the test substance in the stated dosage via a feed tube (0.1% strength solution in propanediol), based on control hearts without addition of the test substance. The following table contains some of the values measured:
(a) mean value of 28 measurements
(b) the values stated result from in each case two measurements.

[2] = target: 3H-nitrendipine binding, membrane preparation from the cortex of the rat brain; assay: displacement of tritium-labeled nitrendipine from rat brain cortex membranes (calcium-antagonistic activity); settings: 3H-nitrendipine 0.1 nM, TRIS buffer pH 7.4, 25° C., 60 minutes; read-out: IC50 (displacement of 50% of the radioactively labeled nitrendipine)
Description: This test was carried out in a membrane preparation obtained from the cortex of the rat brain and washed several times, the method described by R. J. Gould et al. (Proc. Natl. Acad. Sci. U.S.A. 79, 3656 [1982]) essentially being used. […] The membrane fractions were separated off by vacuum filtration over Whatman-GF/F glass fiber filters and the radioactivity was measured in a liquid scintillation counter. […] The IC50 value, i.e. the concentration of test substance which is capable of displacing 50% of the radioactively labeled nitrendipine, is determined as the characteristic parameter.

[3] = values from in each case two measurements, read-out: Increase in coronary circulation

| SMILES | IC50 [2] [nM] | also measured |
| --- | --- | --- |
| Fc1ccc(C(CCCN2CCN(CCOc3c(Cl)cccc3Cl)CC2)c2ccc(F)cc2)cc1 [Example 62] | – | activation at 0.0001 mg [1, 3]: 9 to 13% |
| Fc1ccc(C(CCCN2CCN(CCOC3CCCCC3)CC2)c2ccc(F)cc2)cc1 [Example 16, 1-[4,4-bis(4-fluorophenyl)butyl]-4-[(2-cyclohexoxy)-ethyl]piperazine] | 22 | – |
| Fc1ccc(OCCN2CCN(CCCC(c3ccc(F)cc3)c3ccc(F)cc3)CC2)cc1 [Example 45] | 11 | activation at 0.0001 mg [1, 3]: 13 to 26%; activation at 0.0005 mg [1, 3]: 38 to 57% |
| CN(CCCC(c1ccc(F)cc1)c1ccc(F)cc1)C1CCN(CCOc2cccc3cnccc23)CC1 [Example 37] | 400 | – |
| CCOC(=O)c1ccc(OCCN2CCN(CCCC(c3ccc(F)cc3)c3ccc(F)cc3)CC2)cc1 [Example 70] | – | activation at 0.0005 mg [1, 3]: 36 to 52% |
| Fc1cccc(C(CCCN2CCN(CCOc3cccc4cnccc34)CC2)c2cccc(F)c2)c1 [Example 36] | 90 | – |
| Cc1ccc(OCCN2CCN(CCCC(c3ccc(F)cc3)c3ccc(F)cc3)CC2)cc1 [Example 17] | 12 | activation at 0.0001 mg [1, 3]: 14 to 17%; activation at 0.0005 mg [1, 3]: 33 to 38% |
| Fc1ccc(C(CCCN2CCN(CCOc3ccccc3C(F)(F)F)CC2)c2ccc(F)cc2)cc1 [Example 67] | – | activation at 0.0001 mg [1, 3]: 5 to 21%; activation at 0.0005 mg [1, 3]: 23 to 35% |
| Fc1ccc(C(CCCN2CCN(CCOc3cccc4ncccc34)CC2)c2ccc(F)cc2)cc1 [Example 28] | 65 | – |
| COc1ccc(OCCN2CCN(CCCC(c3ccc(F)cc3)c3ccc(F)cc3)CC2)cc1 [Example 42] | – | activation at 0.0005 mg [1, 3]: 20 to 29% |
| CC(C)(C)c1ccc(OCCN2CCN(CCCC(c3ccc(F)cc3)c3ccc(F)cc3)CC2)cc1 [Example 46] | – | activation at 0.0001 mg [1, 3]: 12 to 23%; activation at 0.0005 mg [1, 3]: 21 to 36% |
| O=[N+]([O-])c1ccc(OCCN2CCN(CCCC(c3ccc(F)cc3)c3ccc(F)cc3)CC2)cc1 [Example 41] | 8.5 | – |
| Fc1ccc(C(CCCN2CCN(CCCCOc3cccc4cnccc34)CC2)c2ccc(F)cc2)cc1 [Example 22] | 85 | – |
| Fc1ccc(C(CCCN2CCC(CCOc3cccc4cnccc34)CC2)c2ccc(F)cc2)cc1 [Example 32] | 12 | – |
| Fc1ccc(C(CCCN2CCN(CCOc3cccc4ccccc34)CC2)c2ccc(F)cc2)cc1 [Example 18, 1-[4,4-bis(4-fluorophenyl)butyl]-4-[2-(1-naphthyloxy)ethyl]piperazine] | 48 | – |

The next lines start with results.

| IC50 [2] [nM] | SMILES | also measured |
| --- | --- | --- |
| 4 | Fc1ccc(C(CCCN2CCN(CCOc3ccc(C(F)(F)F)cc3)CC2)c2ccc(F)cc2)cc1 [Example 50] | activation at 0.0001 mg ([1]; mean value of 28 measurements, read-out: Increase in coronary circulation (mean value)): 38% |
| 9 | CSc1ccc(OCCN2CCN(CCCC(c3ccc(F)cc3)c3ccc(F)cc3)CC2)cc1 [Example 75] | – |
| 1.2 | Fc1ccc(C(CCCN2CCC(CCOc3ccccc3C(F)(F)F)CC2)c2ccc(F)cc2)cc1 [Example 73] | – |
| 19 | CC(=O)c1cccc(OCCN2CCN(CCCC(c3ccc(F)cc3)c3ccc(F)cc3)CC2)c1 [Example 64] | – |
| 3.6 | Fc1ccc(C(CCCN2CCN(CCOc3ccc(Br)cc3)CC2)c2ccc(F)cc2)cc1 [Example 81] | – |
| 180 | NC(=O)C1CN(CCOc2ccccc2)CCN1CCCC(c1ccc(F)cc1)c1ccc(F)cc1 (centres unmarked) [Example 56] | activation at 0.001 mg ([1]; dose 1.0 μg via feed tube, values from in each case two measurements, read-out: Increase in coronary circulation): 40 to 65% |
| 60 | O=C(O)C1CN(CCCC(c2ccc(F)cc2)c2ccc(F)cc2)CCN1CCOc1cccc2ccccc12 (centres unmarked) [Example 61] | – |
| 4.2 | Fc1ccc(C(CCCN2CCC(CCOc3ccc(C(F)(F)F)cc3)CC2)c2ccc(F)cc2)cc1 [Example 71] | – |
| 0.9 | Fc1ccc(C(CCCN2CCN(CCOc3cccc(C(F)(F)F)c3)CC2)c2ccc(F)cc2)cc1 [Example 68] | activation at 0.0001 mg [1, 3]: 20 to 29% |
| 430 | Cc1cccc(C)c1NC(=O)CN1CCN(CCCC(c2ccc(F)cc2)c2ccc(F)cc2)CC1 [Lidoflazine, reference compound] | – |
| 2 | Fc1ccc(C(CCCN2CCN(CCOc3cc(C(F)(F)F)cc(C(F)(F)F)c3)CC2)c2ccc(F)cc2)cc1 [Example 69] | – |
| 70 | CN(C)S(=O)(=O)c1ccc(OCCN2CCN(CCCC(c3ccc(F)cc3)c3ccc(F)cc3)CC2)cc1 [Example 83] | – |
| 12 | CC(=O)c1ccccc1OCCN1CCN(CCCC(c2ccc(F)cc2)c2ccc(F)cc2)CC1 [Example 66] | – |
| 1 | Fc1ccc(C(CCCN2CCC(CCOc3cccc(C(F)(F)F)c3)CC2)c2ccc(F)cc2)cc1 [Example 74] | – |
